In assay [1] the test system is MOLM-13. Description: cells. Also on record: species or system AML cell lines (8); Secondary HTS, 10-point dose-response in triplicate, Cell Titer Glo viability, four-parameter fit EC50. The conditions noted are these: Homo sapiens, MOLM-13, 72 h, read-out: MOLM-13.
Assay [2] relates to MV4-11. The assay can be described thus: cells. Also on record: species or system AML cell lines (8); Secondary HTS, 10-point dose-response in triplicate, Cell Titer Glo viability, four-parameter fit EC50. To be noted: Homo sapiens, MV4-11, 72 h, read-out: MV4-11.
The subject of assay [3] is CHRF288-11. Description: cells. Also on record: species or system AML cell lines (8); Secondary HTS, 10-point dose-response in triplicate, Cell Titer Glo viability, four-parameter fit EC50. To be noted: 72 h, read-out: CHRF288-11.
Assay [4] relates to CMK. The assay can be described thus: cells. Also on record: species or system AML cell lines (8); Secondary HTS, 10-point dose-response in triplicate, Cell Titer Glo viability, four-parameter fit EC50. To be noted: Homo sapiens, CMK, 72 h, read-out: CMK.
Another assay has as its system CMS. The assay can be described thus: cells. To be noted: 72 h, read-out: CMS. Also on record: species or system AML cell lines (8); Secondary HTS, 10-point dose-response in triplicate, Cell Titer Glo viability, four-parameter fit EC50.
The next assay concerns M07e. The assay can be described thus: cells. Also on record: species or system AML cell lines (8); Secondary HTS, 10-point dose-response in triplicate, Cell Titer Glo viability, four-parameter fit EC50. To be noted: M-07e, 72 h, read-out: M07e.
Another assay has as its system ML-2. Description: cells. The conditions noted are these: Homo sapiens, ML-2, 72 h, read-out: ML-2. Also on record: species or system AML cell lines (8); Secondary HTS, 10-point dose-response in triplicate, Cell Titer Glo viability, four-parameter fit EC50.
Assay [5] relates to U937. Description: cells. Also on record: species or system AML cell lines (8); Secondary HTS, 10-point dose-response in triplicate, Cell Titer Glo viability, four-parameter fit EC50. To be noted: Homo sapiens, U-937, 72 h, read-out: U937.
In assay [6] the test system is MOLM-13. The assay can be described thus: Secondary dose-response HTS, Cell Titer Glo. In kind it is cell-based, human. The conditions noted are these: Homo sapiens; secondary high-throughput screen; MOLM-13; read-out: average effective concentration, MOLM-13. (Cellular ATP, detected with luciferase, serves as a proxy for viable cell number.)
In assay [7] the test system is MV4-11. Description: Secondary dose-response HTS, Cell Titer Glo. In kind it is cell-based, human. To be noted: Homo sapiens; secondary high-throughput screen; MV4-11; read-out: average effective concentration, MV4-11.
For assay [8], the system named is CHRF288-11. The assay can be described thus: Secondary dose-response HTS, Cell Titer Glo. In kind it is cell-based, human. The conditions noted are these: Homo sapiens, HTS; secondary high-throughput screen; CHRF288-11; read-out: average effective concentration, CHRF288-11.
The subject of assay [9] is U937. Description: Secondary dose-response HTS, Cell Titer Glo. The conditions noted are these: Homo sapiens, U-937; secondary high-throughput screen; U937; read-out: average effective concentration, U937. In kind it is cell-based, human.
Assay [10] relates to CMK. The assay can be described thus: Secondary dose-response HTS, Cell Titer Glo. In kind it is cell-based, human. To be noted: Homo sapiens; secondary high-throughput screen; CMK; read-out: average effective concentration, CMK.

SMILES strings stand for the structures.

With `O=C(Nc1ccccc1-c1cn2c(CN3CCNCC3)csc2n1)c1cnc2ccccc2n1` [SJ000784238, SRT1720], the EC50 is greater than 10 µM in the assay on MOLM-13 [1]; greater than 10 µM in the assay with MV4-11 [2]; 5.6 µM with CHRF288-11 [3]; greater than 10 µM in the assay with CMK [4]; greater than 10 µM with CMS; 4.4 µM in the assay with M07e. For the same compound, the EC50 in the assay on ML-2 was greater than 10 µM; with U937 [5], 1.5 µM.
As to `Cc1ccc(Nc2nccc(N(C)c3ccc4c(C)n(C)nc4c3)n2)cc1S(N)(=O)=O` [PAZOPANIB], the EC50 in the assay with MOLM-13 [1], in the assay on MV4-11 [2], in the assay on CHRF288-11 [3], in the assay on CMK [4], in the assay with CMS and in the assay on M07e was greater than 10 µM in each case. In addition, the EC50 in the assay on ML-2 and with U937 [5] was greater than 10 µM each time.
On to `Cc1cc([C@@H](C)Nc2ccccc2C(=O)O)c2nc(N3CCOCC3)cc(=O)n2c1` [AZD6482], for which the EC50 in the assay on MOLM-13 [1], with MV4-11 [2], with CHRF288-11 [3], with CMK [4], with CMS and in the assay on M07e was greater than 10 µM in each case. For the same compound, the EC50 with ML-2 and with U937 [5] was greater than 10 µM throughout.
For `CC(C)c1c(C(=O)Nc2ccccc2)c(-c2ccccc2)c(-c2ccc(F)cc2)n1CC[C@@H](O)C[C@@H](O)CC(=O)O` [ATORVASTATIN], the EC50 in the assay on MOLM-13 [6], in the assay with MV4-11 [7], with CHRF288-11 [8], in the assay on U937 [9], in the assay on CMK [4] and in the assay on CMS was greater than 10 µM throughout. The EC50 in the assay on M07e and in the assay with ML-2 was greater than 10 µM each time.
As for `CC(C)Oc1ccc(-c2cnc3c(-c4ccnc5ccccc45)cnn3c2)cc1` [SJ000796016, DMH-1], the EC50 is 0.0063 µM with MOLM-13 [1]; greater than 10 µM in the assay on MV4-11 [2]; greater than 10 µM in the assay on CHRF288-11 [3]; greater than 10 µM in the assay with CMK [4]; greater than 10 µM in the assay with CMS; greater than 10 µM with M07e. The EC50 with ML-2 and in the assay on U937 [5] was greater than 10 µM each time.
As for `S=C(NCc1ccc2c(c1)OCO2)N1CCN(c2ncnc3c2oc2ccccc23)CC1` [AMUVATINIB], the EC50 in the assay with MOLM-13 [1], with MV4-11 [2], in the assay on CHRF288-11 [3], with CMK [4], with CMS and in the assay on M07e was greater than 10 µM throughout. Further, the EC50 in the assay with ML-2 and in the assay with U937 [5] was greater than 10 µM each time.
On to `CSCC[C@H](NC(=O)[C@H](Cc1ccccc1)NC[C@@H](NC[C@@H](N)CS)C(C)C)C(=O)O` [SJ000803726, FTASE INHIBITOR I], for which the EC50 in the assay on MOLM-13 [1], in the assay with MV4-11 [2], with CHRF288-11 [3], with CMK [4], in the assay on CMS and in the assay with M07e was greater than 10 µM each time. In addition, the EC50 in the assay on ML-2 and in the assay with U937 [5] was greater than 10 µM in each case.
Consider `Cc1ccc(NC(=O)c2ccc(CN3CCN(C)CC3)cc2)cc1Nc1nc(-c2cccnc2)cs1` [MASITINIB], for which the EC50 in the assay with MV4-11 [7], in the assay with U937 [9], in the assay with MOLM-13 [1], in the assay on CHRF288-11 [3], in the assay with CMK [4] and in the assay with CMS was greater than 10 µM in each case. The EC50 with M07e and in the assay with ML-2 was greater than 10 µM each time.
As for `CNC(=O)c1cc(Oc2ccc(NC(=O)Nc3ccc(Cl)c(C(F)(F)F)c3)c(F)c2)ccn1` [REGORAFENIB], the EC50 with MOLM-13 [6] is 1.5 µM; with MV4-11 [7], 0.34 µM; in the assay on CHRF288-11 [3] it was greater than 10 µM; in the assay on CMK [4], greater than 10 µM; in the assay with CMS it was greater than 10 µM; in the assay with M07e, greater than 10 µM. For the same compound, the EC50 in the assay on ML-2 and with U937 [5] was greater than 10 µM in each case.
In the case of `Oc1ccc(/C=C/c2cc(O)cc(O)c2)cc1` [RESVERATROL], the EC50 was 8.9 µM with MOLM-13 [6]; greater than 10 µM in the assay with MV4-11 [7]; greater than 10 µM in the assay with CHRF288-11 [3]; greater than 10 µM in the assay on CMK [4]; greater than 10 µM in the assay on CMS; greater than 10 µM with M07e. Moreover, the EC50 in the assay on ML-2 and with U937 [5] was greater than 10 µM throughout.
With `CCc1nc(N)nc(N)c1-c1ccc(Cl)cc1` [PYRIMETHAMINE], the EC50 in the assay on MOLM-13 [6] is 4.5 µM; in the assay on MV4-11 [7] it was greater than 10 µM; in the assay with CHRF288-11 [3], greater than 10 µM; in the assay on CMK [4], greater than 10 µM; with CMS, greater than 10 µM; in the assay on M07e, greater than 10 µM. For the same compound, the EC50 with ML-2 and with U937 [5] was greater than 10 µM in each case.
As to `CC(C(=O)Nc1cccc(/N=C/c2c(O)ccc3ccccc23)c1)c1ccccc1` (centres unmarked) [SALERMIDE], the EC50 is 7 µM in the assay with MOLM-13 [6]; 6.6 µM in the assay with U937 [9]; greater than 10 µM in the assay on MV4-11 [2]; greater than 10 µM in the assay with CHRF288-11 [3]; greater than 10 µM with CMK [4]; greater than 10 µM in the assay on CMS. Besides, the EC50 in the assay with M07e and in the assay with ML-2 was greater than 10 µM throughout.
Regarding `CC[C@H](C)C(=O)O[C@H]1CCC=C2C=C[C@H](C)[C@H](CC[C@@H]3C[C@@H](O)CC(=O)O3)[C@H]21` [MEVASTATIN], the EC50 was 8.9 µM in the assay with MOLM-13 [6]; 6.6 µM in the assay on CHRF288-11 [8]; greater than 10 µM in the assay with MV4-11 [2]; greater than 10 µM in the assay with CMK [4]; greater than 10 µM in the assay on CMS; greater than 10 µM in the assay on M07e. Further, the EC50 in the assay on ML-2 and in the assay with U937 [5] was greater than 10 µM throughout.
On to `CC[C@H](C)C(=O)O[C@H]1C[C@@H](C)C=C2C=C[C@H](C)[C@H](CC[C@@H]3C[C@@H](O)CC(=O)O3)[C@H]21` [LOVASTATIN], for which the EC50 was greater than 10 µM with MOLM-13 [6]; 6.3 µM in the assay on CHRF288-11 [8]; greater than 10 µM in the assay on MV4-11 [2]; greater than 10 µM in the assay on CMK [4]; greater than 10 µM with CMS; greater than 10 µM with M07e. Further, the EC50 in the assay on ML-2 and in the assay on U937 [5] was greater than 10 µM throughout.
Regarding `CCCC(CCC)C(=O)O` [VALPROATE SODIUM], the EC50 in the assay with MOLM-13 [6] was 0.077 µM; in the assay with MV4-11 [2], greater than 10 µM; in the assay on CHRF288-11 [3], greater than 10 µM; in the assay on CMK [4], greater than 10 µM; in the assay on CMS it was greater than 10 µM; with M07e it was greater than 10 µM. The EC50 with ML-2 and with U937 [5] was greater than 10 µM each time.
For `CC(=O)O[C@H]1CC[C@@]2(C)C(=CC[C@@H]3[C@@H]2CC[C@]2(C)C(c4cccnc4)=CC[C@@H]32)C1` [ABIRATERONE ACETATE], the EC50 in the assay on CMK [10] was 5.3 µM; in the assay on MOLM-13 [1] it was greater than 10 µM; with MV4-11 [2], greater than 10 µM; in the assay with CHRF288-11 [3] it was greater than 10 µM; with CMS it was greater than 10 µM; in the assay on M07e, greater than 10 µM. The EC50 with ML-2 and with U937 [5] was greater than 10 µM each time.
In the case of `Cc1nc(C(=O)NCC(=O)O)c(O)c2ccc(Oc3ccccc3)cc12` [FG-4592], the EC50 with MOLM-13 [6] is 0.002 µM; in the assay on MV4-11 [2], greater than 10 µM; in the assay on CHRF288-11 [3], greater than 10 µM; with CMK [4], greater than 10 µM; with CMS, greater than 10 µM; in the assay with M07e, greater than 10 µM. Besides, the EC50 in the assay on ML-2 and in the assay on U937 [5] was greater than 10 µM each time.
Consider `C=C(c1ccc(C(=O)O)cc1)c1cc2c(cc1C)C(C)(C)CCC2(C)C` [BEXAROTENE], for which the EC50 in the assay on MV4-11 [7] is 2.1 µM; in the assay with CMK [10], 8.1 µM; in the assay with MOLM-13 [1], greater than 10 µM; in the assay on CHRF288-11 [3], greater than 10 µM; with CMS, greater than 10 µM; in the assay with M07e it was greater than 10 µM. The EC50 in the assay on ML-2 and in the assay on U937 [5] was greater than 10 µM each time.
Take `CCC(C)n1ncn(-c2ccc(N3CCN(c4ccc(OCC5COC(Cn6cncn6)(c6ccc(Cl)cc6Cl)O5)cc4)CC3)cc2)c1=O` (centres unmarked) [ITRACONAZOLE]: the EC50 with CMK [10] was 6.4 µM; in the assay on MOLM-13 [1], greater than 10 µM; in the assay with MV4-11 [2], greater than 10 µM; with CHRF288-11 [3], greater than 10 µM; in the assay with CMS, greater than 10 µM; in the assay on M07e, greater than 10 µM. Further, the EC50 in the assay on ML-2 and with U937 [5] was greater than 10 µM each time.
